Results as given in ChEMBL document CHEMBL4118260, “Structure-based drug design to overcome species differences in kallikrein 7 inhibition of 1,3,6-trisubstituted 1,4-diazepan-7-ones” (Bioorg Med Chem, 2018).

Key:
Kallikrein-7 [1] = target: Kallikrein-7 (Mus musculus, UniProt Q91VE3); assay: Inhibition of mouse KLK7 using MOCAcArg-Pro-Lys-Pro-Val-Glu-Nva-Trp-Arg-Lys(Dnp)-NH2 as substrate preincubated for 10 mins followed by substrate addition measured after 30 mins by fluorescence assay
[2] = target: Kallikrein-7 (Mus musculus) (UniProt Q91VE3); assay: Inhibition of mouse KLK7 at 30 uM using MOCAcArg-Pro-Lys-Pro-Val-Glu-Nva-Trp-Arg-Lys(Dnp)-NH2 as substrate preincubated for 10 mins followed by substrate addition measured after 30 mins by fluorescence assay relative to control
Sequence of Kallikrein-7 (Mus musculus) (Q91VE3 whole entry, the tested form may be a part): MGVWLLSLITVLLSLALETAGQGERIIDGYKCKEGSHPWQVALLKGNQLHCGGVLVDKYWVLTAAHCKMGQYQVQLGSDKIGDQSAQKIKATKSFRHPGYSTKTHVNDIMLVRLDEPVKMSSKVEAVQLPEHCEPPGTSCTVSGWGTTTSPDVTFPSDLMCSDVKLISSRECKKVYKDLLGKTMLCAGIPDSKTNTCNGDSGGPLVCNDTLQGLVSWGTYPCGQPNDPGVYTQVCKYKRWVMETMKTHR

Kallikrein-7 [3] = target: Kallikrein-7 (Homo sapiens, UniProt P49862); assay: Inhibition of recombinant human C-terminal His10-tagged KLK7 (E23 to H252 residues) using MOCAcArg-Pro-Lys-Pro-Val-Glu-Nva-Trp-Arg-Lys(Dnp)-NH2 as substrate preincubated for 10 mins followed by substrate addition measured after 30 mins by fluorescence assay
Sequence of Kallikrein-7 (Homo sapiens, UniProt P49862) (P49862 whole entry, the tested form may be a part): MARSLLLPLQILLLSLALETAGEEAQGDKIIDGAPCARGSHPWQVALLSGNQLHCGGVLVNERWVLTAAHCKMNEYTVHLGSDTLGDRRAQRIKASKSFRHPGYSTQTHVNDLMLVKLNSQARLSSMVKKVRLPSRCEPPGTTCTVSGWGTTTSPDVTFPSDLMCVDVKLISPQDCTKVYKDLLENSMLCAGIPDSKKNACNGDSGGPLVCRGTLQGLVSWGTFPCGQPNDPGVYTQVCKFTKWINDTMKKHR

Sequence of Kallikrein-7 (Mus musculus, UniProt Q91VE3) (Q91VE3 whole entry): as the sequence (Q91VE3 whole entry, the tested form may be a part) above

| SMILES | IC50 (Kallikrein-7 [1]) [µM] | inhibition [2] [%] | IC50 (Kallikrein-7 [3]) [µM] |
| --- | --- | --- | --- |
| COc1ccc(Cl)cc1C[C@@H]1CN/C(=N\N(C)C)CN([C@@H](C)C(=O)Nc2cccc(-c3cnn(C)c3)c2)C1=O | > 30 | 32 | – |
| COc1ccc(Cl)cc1C[C@@H]1CN/C(=N\N(C)C)CN(CC(=O)Nc2cccc(C(=O)O)c2)C1=O | > 30 | 11 | – |
| COc1ccccc1C[C@@H]1CN/C(=N\N(C)C)CN(CC(=O)Nc2cccc(-c3cnn(C)c3)c2)C1=O | > 30 | 41 | 2.4 |
| COc1ccc(Cl)cc1C[C@@H]1CN/C(=N\N(C)C)CN(CC(=O)Nc2cccc(-c3cnn(C)c3)c2)C1=O | > 30 | -1.2 | – |
| CN(C)/N=C1/CN(CC(=O)Nc2cccc(-c3cnn(C)c3)c2)C(=O)C(Cc2c(F)cccc2F)CN1 (racemic) | > 30 | – | 6.9 |
| CN(C)/N=C1/CN(CC(=O)Nc2cccc(-c3cnn(C)c3)c2)C(=O)C(Cc2ccccc2C#N)CN1 (racemic) | > 30 | 22 | 17 |
| COc1cccc(F)c1CC1CN/C(=N\N(C)C)CN(CC(=O)Nc2cccc(-c3cnn(C)c3)c2)C1=O (racemic) | > 30 | – | 6.8 |
| CN(C)/N=C1/CN(CC(=O)Nc2cccc(-c3cnn(C)c3)c2)C(=O)C(Cc2ccccc2Cl)CN1 (racemic) | 21 | 59 | 2.5 |
| CN(C)/N=C1/CN(CC(=O)Nc2cccc(-c3cnn(C)c3)c2)C(=O)C(Cc2c(F)cccc2C(F)(F)F)CN1 (racemic) | > 30 | – | 2.7 |
| COc1cc(Cl)ccc1CC1CN/C(=N\N(C)C)CN(CC(=O)Nc2cccc(-c3cnn(C)c3)c2)C1=O (racemic) | > 30 | -4.1 | 7.5 |

Stronger by IC50 (Kallikrein-7 [1]), values ahead:

| IC50 (Kallikrein-7 [1]) [µM] | inhibition [2] [%] | IC50 (Kallikrein-7 [3]) [µM] | SMILES |
| --- | --- | --- | --- |
| 1.2 | – | 0.79 | CN(C)/N=C1/CN(CC(=O)Nc2cccc(-c3cnn(C)c3)c2)C(=O)C(Cc2c(Cl)cccc2Cl)CN1 (racemic) |
| 7.8 | – | 11 | CN(C)/N=C1/CN(CC(=O)Nc2cccc(-c3cnn(C)c3)c2)C(=O)C(Cc2c(Cl)cccc2C#N)CN1 (racemic) |
| 6 | – | 0.94 | CN(C)/N=C1/CN(CC(=O)Nc2cccc(-c3cnn(C)c3)c2)C(=O)C(Cc2c(F)cccc2Cl)CN1 (racemic) |
| 14 | 67 | 11 | COc1cccc(Cl)c1CC1CN/C(=N\N(C)C)CN(CC(=O)Nc2cccc(-c3cnn(C)c3)c2)C1=O (racemic) |
| 7.1 | – | 11 | Cc1cccc(C#N)c1CC1CN/C(=N\N(C)C)CN(CC(=O)Nc2cccc(-c3cnn(C)c3)c2)C1=O (racemic) |
| 1.6 | – | 1.5 | Cc1cccc(Cl)c1CC1CN/C(=N\N(C)C)CN(CC(=O)Nc2cccc(-c3cnn(C)c3)c2)C1=O (racemic) |
| 19 | – | 13 | COc1cccc(C)c1CC1CN/C(=N\N(C)C)CN(CC(=O)Nc2cccc(-c3cnn(C)c3)c2)C1=O (racemic) |
| 3.8 | – | 5.2 | Cc1cccc(C)c1CC1CN/C(=N\N(C)C)CN(CC(=O)Nc2cccc(-c3cnn(C)c3)c2)C1=O (racemic) |
| 7.7 | – | 2.3 | Cc1cccc(F)c1CC1CN/C(=N\N(C)C)CN(CC(=O)Nc2cccc(-c3cnn(C)c3)c2)C1=O (racemic) |
| 0.7 | – | 0.38 | CN(C)/N=C1/CN(CC(=O)Nc2cccc(-c3cnn(C)c3)c2)C(=O)C(Cc2c(Cl)cccc2Cl)CN1 (single isomer, unassigned; (-)) |
| 16 | – | > 30 | CN(C)/N=C1/CN(CC(=O)Nc2cccc(-c3cnn(C)c3)c2)C(=O)C(Cc2c(Cl)cccc2Cl)CN1 (stereo in doubt; (+)-22g) |
